Measurements: PubChem BioAssay (NCI)
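Exposure lasted 48 hours, with cells grown in 96-well plates and compounds tested at five concentrations. GI50 marks 50% less growth. TGI: concentration producing complete growth inhibition.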

Tests used:
Assay in all cases: NCI anticancer screen, dose series, 48 h
[1] = system: MALME-3M melanoma
[2] = system: UACC-257 melanoma
[3] = system: OVCAR-8 ovarian
[4] = system: HOP-92 NSCLC
[5] = system: LOX IMVI melanoma
[6] = system: EKVX NSCLC
[7] = system: MOLT-4 leukemia
[8] = system: SF-295 CNS
[9] = system: UO-31 renal
[10] = system: A498 renal

Compound	GI50 [1]	TGI [1]	GI50 [2]	TGI [2]	GI50 [3]	TGI [3]	GI50 [4]	TGI [4]	GI50 [5]	TGI [5]	GI50 [6]	TGI [6]	GI50 [7]	TGI [7]	GI50 [8]	TGI [8]	GI50 [9]	TGI [9]	GI50 [10]	TGI [10]
Cc1ncc(C(=O)Nc2ccc(CN3CCN(C)CC3)c(C(F)(F)F)c2)cc1C#Cc1c(N)ncc2ccccc12	0.102 µM	0.475 µM	0.477 µM	1.06 µM	0.566 µM	1.28 µM	0.0535 µM	0.505 µM	0.173 µM	0.605 µM	0.458 µM	0.906 µM	0.228 µM	0.836 µM	0.568 µM	1.14 µM	0.46 µM	1.27 µM	0.485 µM	0.939 µM
COC(=O)[C@]12CC[C@@H](C)[C@H](C)[C@@H]1C1=CC[C@@H]3[C@@]4(C)C(C=O)=C[C@@](C)(COS(C)(=O)=O)C4[C@H](O)C[C@@]3(C)[C@]1(C)CC2 (some centres undefined)	1.65 µM	3.39 µM	1.85 µM	3.65 µM	2.08 µM	5.71 µM	2.39 µM	5.56 µM	1.47 µM	2.81 µM	2.14 µM	6.28 µM	0.313 µM	1.05 µM	1.31 µM	2.77 µM	1.04 µM	2.35 µM	3.74 µM	16 µM
CC(=O)/C=C1\CC(=O)Nc2ccccc2N1		> 100 µM		> 100 µM		> 100 µM		> 100 µM		> 100 µM		> 100 µM		> 100 µM		> 100 µM		> 100 µM		> 100 µM
OCC(CCc1c[nH]c2ccccc12)c1c[nH]c2ccccc12 (centres undefined)		32.2 µM		24.7 µM		46.6 µM		32.7 µM		27.3 µM		30.3 µM		52.1 µM		42.9 µM		25.9 µM		30.2 µM
CS/C(c1ccccc1)=[N+](\[O-])Cc1ccccc1		> 100 µM		> 100 µM		> 100 µM		> 100 µM		31.6 µM		> 100 µM		> 100 µM		> 100 µM		> 100 µM		> 100 µM
O=C1c2ccccc2-c2c1c1ccc([N+](=O)[O-])cc1c(=O)n2CCCNCCO	0.341 µM	1.62 µM	3.37 µM	9.39 µM	0.225 µM	3.64 µM	0.0259 µM	0.0899 µM	0.0665 µM	0.348 µM		> 21 µM	0.0374 µM	1.4 µM	0.0729 µM	1.44 µM	0.0989 µM	1.06 µM	1.39 µM	3.75 µM
COc1cc2c3c(n(CCCBr)c(=O)c2cc1OC)-c1ccc(F)cc1C3=O	43 µM	> 100 µM	76.4 µM	> 100 µM	26.4 µM	> 100 µM	4.07 µM	28.4 µM	5.48 µM	30.1 µM	49.5 µM	> 100 µM	2.89 µM	10.6 µM	1.69 µM	9.23 µM	5.57 µM	60.4 µM	14.8 µM	40.9 µM
NS(=O)(=O)c1ccc(-n2ncc3c(Nc4ccccc4)ncnc32)cc1	33 µM	> 100 µM	39.4 µM	> 100 µM	18.3 µM	65 µM	23.6 µM	> 100 µM	14.9 µM	70 µM	41.4 µM	> 100 µM	14.5 µM	61.4 µM	16.9 µM	53.4 µM	23.9 µM	> 100 µM	24.3 µM	92.7 µM
